The record followed here is patent US8648110B2, “2-aryl-acetic acids, their derivatives and pharmaceutical compositions containing them” (Dompe Pha.R.Ma S.p.A., priority 2003, dated 2014).

Assay [1] concerns the target T1, CXCR1 (Homo sapiens, UniProt P25024).
T1 construct: endogenous in cells; host or cells: human polymorphonucleate leukocytes (PMNs) isolated from blood of healthy volunteers
T1 sequence (P25024 1-350): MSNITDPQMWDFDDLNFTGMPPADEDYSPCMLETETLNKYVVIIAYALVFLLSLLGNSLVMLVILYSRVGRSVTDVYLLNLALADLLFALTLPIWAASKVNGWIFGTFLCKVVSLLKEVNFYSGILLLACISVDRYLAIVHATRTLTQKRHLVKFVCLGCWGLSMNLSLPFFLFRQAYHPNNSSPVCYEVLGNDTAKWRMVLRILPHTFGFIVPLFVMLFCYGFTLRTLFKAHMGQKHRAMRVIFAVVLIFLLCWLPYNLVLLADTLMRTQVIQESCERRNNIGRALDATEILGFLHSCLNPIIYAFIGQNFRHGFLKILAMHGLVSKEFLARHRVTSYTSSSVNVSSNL
Description: IL-8 induced PMN chemotaxis (CXCR1). The assay is classed as cell-based. The following applies: for inhibition at 0.01 µM: compound c = 10^−8 M, IL-8 induced human PMN chemotaxis; for IL-8 inhibitory activity: result in words, IL-8 induced chemotaxis.

Assay [2] has as its target T2, CXCR2 (Homo sapiens, UniProt P25025).
T2 construct: endogenous in cells; host or cells: human polymorphonucleate leukocytes (PMNs) isolated from blood of healthy volunteers
T2 sequence (P25025 1-360): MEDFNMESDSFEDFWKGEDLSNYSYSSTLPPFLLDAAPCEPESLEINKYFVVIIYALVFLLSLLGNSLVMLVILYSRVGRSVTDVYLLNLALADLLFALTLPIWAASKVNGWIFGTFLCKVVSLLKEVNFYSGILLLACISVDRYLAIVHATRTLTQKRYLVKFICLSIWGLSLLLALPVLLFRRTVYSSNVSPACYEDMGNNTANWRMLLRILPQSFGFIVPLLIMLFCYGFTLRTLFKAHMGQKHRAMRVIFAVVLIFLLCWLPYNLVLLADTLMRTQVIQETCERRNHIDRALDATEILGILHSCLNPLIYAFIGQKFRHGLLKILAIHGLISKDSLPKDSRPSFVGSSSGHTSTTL
Description: GRO-α induced PMN chemotaxis (CXCR2). The format is cell-based. The following applies: compound c = 10^−8 M. Here is the method:
The compounds of the invention of formula I were evaluated in vitro for their ability to inhibit chemotaxis of polymorphonucleate leukocytes (hereinafter referred to as PMNs) and monocytes induced by the fractions of IL-8 and GRO-α. For this purpose, in order to isolate the PMNs from heparinized human blood, taken from healthy adult volunteers, mononucleates were removed by means of sedimentation on dextran (according to the procedure disclosed by W. J. Ming et al., J. Immunol., 138, 1469, 1987) and red blood cells by a hypotonic solution. The cell viability was calculated by exclusion with Trypan blue, whilst the ratio of the circulating polymorphonucleates was estimated on the cytocentrifugate after staining with Diff Quick.
During the chemotaxis assay (according to W. Falket et al., J. Immunol. Methods, 33, 239, 1980) PVP-free filters with a porosity of 5 μm and microchambers suitable for replication were used.
The compounds of the invention of formula (I) and (Ia) were evaluated at a concentration ranging between 10^−6 and 10^−10 M; for this purpose they were added, at the same concentration, both to the lower pores and the upper pores of the microchamber. Evaluation of the ability of the compounds of the invention of formula I to inhibit IL-8-induced chemotaxis of human monocytes was carried out according to the method disclosed by Van Damme J. et al. (Eur. J. Immunol., 19, 2367, 1989).
The biological activity of compounds showing high potency either as inhibitors of IL-8 induced PMN chemotaxis (CXCR1) or as dual inhibitors of IL-8 and GRO-α induced PMN chemotaxis (CXCR1/CXCR2) is reported in Table 1.

For orientation: inhibition means the drop in the measured response relative to a control, in per cent. With `Cc1c(CC(=O)O)cccc1C(C)C` [Example 2, (3-isopropyl-2-methylphenyl)acetic acid], the inhibition at 0.01 µM in assay [1] was 62 ± 8%; in assay [2] it was 5 ± 10%.
For `CCC(=O)c1cccc(CC(=O)O)c1Cl` [Example 3, (2-chloro-3-propionylphenyl)acetic acid], in that order: 67 ± 14% and 27 ± 8%.
The like results for `Cc1cc(CC(C)C)ccc1CC(=O)O` [Example 4, (4-isobutyl-2-methylphenyl)acetic acid] were, in that order, 60 ± 10% and 4 ± 8%.
For `CC(=O)c1ccc(CC(=O)O)n1C` [Example 11, (5-acetyl-1-methyl-1H-pyrrol-2-yl)acetic acid], in that order: 60 ± 7% and 65 ± 5%.
Take `CC(C)C(=O)c1ccc(CC(=O)O)n1C` [Example 12, (5-isobutyryl-1-methyl-1H-pyrrol-2-yl)acetic acid]: the inhibition at 0.01 µM was 58 ± 11% in assay [1] and 65 ± 11% in assay [2].
For `CC(=O)c1ccc(CC(N)=O)n1C` [Example 19, (5-acetyl-1-methyl-1H-pyrrol-2-yl)acetamide], in that order: 54 ± 10% and 44 ± 9%.
The like results for `CC(=O)c1ccc(CC(=O)NS(C)(=O)=O)n1C` [Example 41, (5-acetyl-1-methyl-1H-pyrrol-2-yl)acetyl methanesulfonamide] were, in that order, 50 ± 10% and 46 ± 14%.
For `Cc1cc(CC(C)C)ccc1CC(=O)NS(C)(=O)=O` [Example 42, (4-isobutyl-2-methylphenyl)acetyl methanesulfonamide], in that order: 67 ± 14% and 0%.
As to `Cc1cc(NS(=O)(=O)C(F)(F)F)ccc1CC(=O)NS(C)(=O)=O` [Example 43, {2-methyl-4-[(trifluoromethanesulfonyl)amino]phenyl}acetyl methanesulfonamide], the values for the inhibition at 0.01 µM in assay [1] and in assay [2] were 60 ± 7% and 52 ± 5%, respectively.
Regarding `CC(C)Cc1ccc(CC(=O)O)cc1` [ibufenac, 2-[4-isobutylphenyl]acetic acid, reference compound], in assay [1], the IL-8 inhibitory activity entry was “do not exert any IL-8 inhibitory activity”.
On the same count and under the same terms, in the case of `O=C(O)Cc1cccc(C(=O)c2ccccc2)c1` [ketofenac, 2-[3-benzoylphenyl]acetic acid, reference compound] it was “do not exert any IL-8 inhibitory activity”.
